Measurements taken from US20070112013A1, “Method of modulating ion channel functional activity” (Australian National University, priority 1998, published 2007).

Tests used:
[1] = molecular target: T1, Vpu ion channel (Human immunodeficiency virus type 1 group M subtype B, UniProt P05919); test: Vpu ion channel activity in planar lipid bilayers; format: biochemical, HIV-1; conditions: concentrations of 50-250μM
T1 construct: The vpu ORF was cloned in-frame at the 3′ end of the GST gene in p2GEX to generate p2GEXVpu; GST (N, cleaved yes); made in house; host or cells: E. coli XL1-blue containing p2GEXVpu
Text: FIG. 6 is a graphical representation of the inhibition of Vpu ion channel activity by 5-(N,N-hexamethylene)-arniloride (HMA) in planar lipid bilayers. The three traces represent typical Vpu channel activity observed in the presence of the indicated concentrations of HMA. The solid line indicates the zero current level. Mean currents (±variance), calculated for continuous channel recordings of at least 30 seconds duration, are plotted in the graph for each of the three drug concentrations.
Purified Vpu was tested for its ability to induce channel activity in planar lipid bilayers using standard techniques as described elsewhere (Miller, 1986; and Piller et al, 1996). The solutions in the CIS and TRANS chambers were separated by a Delrin™ plastic wall containing a small circular hole of approximately 100 μm diameter across which a lipid bilayer was painted so as to form a high resistance electrical seal. Bilayers were painted from a mixture (8:2) of palrnitoyl-oleoly-phosphatidyl-ethanolamine and palmitoyl-oleoly-phosphatidyl-choline (Avanti Polar Lipids, Alabaster, Alabama) in n-decane. The solutions in the two chambers contained MES buffer (10 mM, pH 6.0) to which various NaCl or KCl concentrations were added. Currents were recorded with an Axopatch™ 200 amplifier. The electrical potential between the two chambers could be manipulated between ±200 mV (TRANS relative to grounded CIS). Aliquots containing Vpu were added to the CIS chamber either as a detergent solution or after incorporation of the protein into phospholipid vesicles. The chamber was stirred until currents were observed.

[2] = tested on: HIV-1; test: PCR based assay of newly synthesised HIV DNA in human monocytes and macrophages; format: cell-based; conditions: 50 μM
Protocol: Human monocytes were isolated from peripheral blood and cultured either for 24 hr (one day old monocytes) or for 7 days to allow differentiation into monocyte derived macrophages (MDM). These cells were then exposed to cell-free preparations of HIV isolates and allowed to absorb for 2 hr before complete aspiration of the medium, washing once with virus-free medium and resuspension in fresh medium. The cells were exposed to 50-10 μM HMA or DMA either 24 hr prior to infection or after infection. Subsequent HIV replication, at various times after infection, was compared in cells exposed to drugs and in cells not exposed to drugs (controls). The progression and extent of viral replication was assayed using either an HIV DNA PCR method (Fear et al, 1998) or an ELISA method to quantitate p24 in culture supernatants (Kelly et al, 1998).
(§1) Subsequent tests were carried out to establish whether there was any anti-viral activity of HMA and DMA. Two tests were performed to characterise the effects of the drugs on HIV replication in human monocytes and macrophages: a) A PCR based assay was used to detect newly synthesised DNA arising from reverse transcription of the HIV genome, an early stage in virus replication; b) An ELISA method was used to quantitate production of the viral protein p24, reflecting a later stage in the replication process.

[3] = tested on: HIV-1; test: p24 ELISA of HIV virion production in human monocytes and macrophages; format: cell-based
Protocol: FIG. 7 is a graphical representation of the effect of HMA on HIV virion production in monocytes and monocyte-derived macrophages. HIV in culture supernatants was assayed at various days post-infection by detection of p24 antigen using a quantitative ELISA method. Solid black bars represent HIV-infected cells exposed to 10 μM HMA. Hatched bars are control cells not exposed to drug.
Human monocytes were isolated from peripheral blood and cultured either for 24 hr (one day old monocytes) or for 7 days to allow differentiation into monocyte derived macrophages (MDM). […] The progression and extent of viral replication was assayed using either an HIV DNA PCR method (Fear et al, 1998) or an ELISA method to quantitate p24 in culture supernatants (Kelly et al, 1998).
as §1

[4] = molecular target: T1, Vpu ion channel; test: Bio-assay for Vpu channel blockers: growth of E. coli XL1-blue expressing Vpu on plates lacking adenine; format: cell-based, HIV-1; conditions: XL1-blue E. coli containing pPL-Vpu, medium lacking adenine, 37° C.
Protocol: FIG. 5 is a graphical representation of the screening of drugs for potential Vpu channel blockers. […] Numbers 6-11 are located at the sites of application of various drugs being tested, which were applied in 3μl drops and allowed to soak into the agarose. The plate was then incubated at 37° C. for 48hr prior to being photographed. The background grey shade corresponds to areas of no bacterial growth. The bright circular area around “10” represents bacterial cell growth as a result of application of adenine at that location (positive control).
As part of a search for drugs that block the Vpu ion channel, a novel bio-assay was developed to facilitate the screening process which would be prohibitively slow if performed in the bilayer assay (Ewart et al, 1996). This bio-assay is based on the observation that expression of Vpu in E.coli results in an active Vpu channel located in the plasmalemma that dissipates the transmembrane sodium gradient. As a consequence of this Vpu channel activity, metabolites whose accumulation within the cells is mediated by a sodium dependent co-transporter (for example proline or adenine) leak out of the cell faster than they can be synthesised so that the metabolites' intracellular levels become limiting for growth of the cell. Thereby, an E. coli cell expressing Vpu is unable to grow in minimal drop-out media lacking adenine or proline. However, in the presence of a drug that blocks the Vpu channel, the cell is once again able to re-establish its transmembrane sodium gradient—due to the action of other ion pumps in the membrane—and the leakage of metabolites is prevented enabling growth.
It was observed that, due to an uncharacterised mutation in the adenine synthesis pathway, growth of E. coli cells of the XL1-blue strain expressing Vpu at 37° C. was dependant on the presence of adenine in the medium. […]

[5] = tested on: HIV; test: Effect on HIV replication (test not specified); format: cell-based

T1 sequence (P05919 whole entry): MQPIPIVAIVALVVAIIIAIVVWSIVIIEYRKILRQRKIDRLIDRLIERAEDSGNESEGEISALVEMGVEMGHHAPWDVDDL

SMILES	inhibition of Vpu ion-channel activity [1]	synthesis of HIV DNA in the cells [2]	HIV virion synthesis (p24 ELISA) ([3]; 50 μM, data not shown)	halo of bacterial growth around the site of application (inhibition of Vpu channel) [4]	halo of bacterial growth around the site of application (inhibition of Vpu channel) ([4]; listed as 5-(N,N-hexamethylene)-anmiloride)	HIV virion synthesis (p24 ELISA) ([3]; 10 μM, monocytes (FIG. 7A) and macrophages (FIG. 7B))	effect on HIV replication [5]
CN(C)c1nc(N)c(C(=O)N=C(N)N)nc1Cl [DMA, 5-(N,N-Dimethyl)-Amiloride]	inhibit channel activity, though not as potently as HMA	inhibited synthesis of HIV DNA	clear inhibition of HIV virion synthesis	–	–	–	–
NC(N)=NC(=O)c1nc(Cl)c(N2CCCCCC2)nc1N [HMA, 5-(N,N-Hexamethylene)-Amiloride]	block ion flow through the channel	–	–	a halo of growth	smaller halo of bacterial growth	clear inhibition of HIV virion synthesis	–
N=C(N)NC(=O)c1nc(Cl)c(N)nc1N [amiloride, reference compound]	not active as a channel blocker	–	–	did not produce a halo of bacterial growth	–	–	no effect on HIV replication
